Values after ≈ are worked out from the molar mass of the structure shown.
Experiments:
Rattus norvegicus [1] = organism: Rattus norvegicus
[2] = biological target: T1, Estrogen receptor (Rattus norvegicus) (UniProt P06211+Q62986)
Estrogen receptor [3] = biological target: T2, Estrogen receptor (Homo sapiens, UniProt Q92731+P03372); experiment: Displacement of [3H]estradiol from estrogen receptor in squirrel monkey; assay type: protein assay
Estrogen receptor [4] = biological target: T3, Estrogen receptor (Rattus norvegicus, UniProt P06211+Q62986)
Estrogen receptor [5] = biological target: T2, Estrogen receptor; experiment: Displacement of [3H]estradiol from estrogen receptor in immature rabbit; assay type: protein assay, Oryctolagus cuniculus; conditions: target entry is the homologue from another species
Estrogen receptor [6] = biological target: T3, Estrogen receptor; remark: listed apart in the source
Rattus norvegicus [7] = experiment: In vivo […] activity in rats; assay type: functional
[8] = Selectivity ratio for antifertility and estrogenic potencies in rats; assay type: functional
Estrogen receptor [9] = biological target: T3, Estrogen receptor; experiment: Displacement of [3H]estradiol from estrogen receptor in mature rat; assay type: protein assay
[10] = biological target: T1, Estrogen receptor (Rattus norvegicus); remark: listed apart in the source
[11] = biological target: T1, Estrogen receptor (Rattus norvegicus); remark: listed apart in the source
Estrogen receptor [12] = biological target: T2, Estrogen receptor; conditions: Macaca mulatta
[13] = biological target: T1, Estrogen receptor (Rattus norvegicus); experiment: In vivo uterotrophic effect in immature rats; assay type: functional, organism-based
Rattus norvegicus [14] = experiment: In vivo antifertility potency in rats at 200 ug/kg/day; assay type: functional
[15] = biological target: T1, Estrogen receptor (Rattus norvegicus); experiment: In vivo estrogenic receptor potency relative to ethynylestradiol in rat; assay type: functional, organism-based
Rattus norvegicus [16] = experiment: In vivo anti-fertility activity in rat; assay type: functional
Estrogen receptor [17] = biological target: T2, Estrogen receptor; experiment: Estrogenic effect in rhesus monkey relative to ethynylestradiol; assay type: functional; conditions: Macaca mulatta; target entry is the homologue from another species
Estrogen receptor [18] = biological target: T3, Estrogen receptor; experiment: Displacement of [3H]estradiol from estrogen receptor in immature rat; assay type: protein assay

Row | Structure (SMILES) | Antifertility potency (Rattus norvegicus [1]) | Estrogenic potency [2] | also measured
1 | CC[Si](C#C[C@H]1CC[C@H]2[C@@H]3CCc4cc(O)ccc4[C@H]3CC[C@]12C)(CC)CC | <4 | 0.04 | –
2 | COc1ccc2c(c1)CC[C@@H]1[C@@H]2CC[C@@]2(C)[C@H]1CC[C@@]2(O)c1ccccc1 | 10 | 0.69 | –
3 | C[C@]12CC[C@@H]3c4ccc(O)cc4CC[C@H]3[C@@H]1CC[C@@H]2CO | <110 | 0.03 | –
4 | C=C1CC[C@H]2[C@@H]3CCc4cc(O)ccc4[C@H]3[C@H](O)C[C@]12C | 10 | 0.02 | –
5 | CC[C@H]1CC[C@H]2[C@@H]3CCc4cc(O)ccc4[C@H]3CC[C@]12C (stereo in doubt; 8b) [listing 1 of 2 here] | 66 | – | EC50 (Estrogen receptor [3]): 60 µg/mL (≈ 211 µM); EC50 (Estrogen receptor [4]): 8 µg/mL (≈ 28.1 µM); EC50 (Estrogen receptor [5]): 11 µg/mL (≈ 38.7 µM); EC50 (Estrogen receptor [6]): 20 µg/mL (≈ 70.3 µM); Infertility activity (Rattus norvegicus [7]): 66
6 | C#C[C@]1(O)CC[C@H]2[C@@H]3CCc4cc(O)ccc4[C@H]3[C@@H](OC)C[C@@]21C [MOXESTROL] | 1000 | 2000 | –
7 | C#C[C@H]1CC[C@H]2[C@@H]3CCc4cc(O)ccc4[C@H]3CC[C@]12C | <10 | 0.07 | –
8 | CC[C@H]1CC[C@H]2[C@@H]3CCc4cc(O)ccc4[C@H]3C(=O)C[C@]12C | >1000 | – | –
9 | C[C@]12CC[C@@H]3c4ccc(O)cc4CC[C@H]3[C@@H]1CC/C2=N\Nc1ccccn1 | <4 | 0.1 | –
10 | C=C1CC[C@H]2[C@@H]3CCc4cc(O)ccc4[C@H]3CC[C@]12C | 40 | 0.5 | Ratio [8]: 80; Estrogenic potency ([2]; tested as the 2H-labelled form): 0.65; EC50 (Estrogen receptor [5]): 1.5 µg/mL (≈ 5.59 µM); EC50 (Estrogen receptor [9]): 0.8 µg/mL (≈ 2.98 µM)
11 | CC(F)(F)[C@H]1CC[C@H]2[C@@H]3CCc4cc(O)ccc4[C@H]3CC[C@]12C | <20 | 0.09 | –
12 | C#C[C@]1(O)CC[C@H]2[C@@H]3CCc4cc(O)ccc4[C@H]3[C@@H](O)C[C@@]21C | 200 | 120 | EC50 (Estrogen receptor [3]): 150 µg/mL (≈ 480 µM); EC50 (Estrogen receptor [4]): 16 µg/mL (≈ 51.2 µM); EC50 (Estrogen receptor [5]): 8 µg/mL (≈ 25.6 µM); Uterotrophic effect [10]: 19; EC50 (Estrogen receptor [6]): 5.2 µg/mL (≈ 16.6 µM); Uterotrophic effect [11]: 5; Estrogenic effect (Estrogen receptor [12]): 500; Infertility activity [13]: 150; Infertility activity (Rattus norvegicus [7]): 100
13 | CC[C@H]1CC[C@H]2[C@@H]3C(C)Cc4cc(O)ccc4[C@H]3CC[C@]12C (stereo partly specified) | <200 | 15 | –
14 | CC(=O)[C@H]1CC[C@H]2[C@@H]3CCc4cc(O)ccc4[C@H]3CC[C@]12C | <4 | 0.01 | –
15 | CC[C@H]1CC[C@H]2[C@@H]3CCc4cc(O)ccc4[C@H]3CC[C@]12C (stereo in doubt; 8i) [listing 1 of 2 here] | – | 0.16 | –
16 | CCCC[C@H]1CC[C@H]2[C@@H]3CCc4cc(O)ccc4[C@H]3CC[C@]12C | <10 | 0.4 | –
17 | C#C[C@]1(O)CC[C@H]2[C@@H]3CCc4cc(O)ccc4[C@H]3CC[C@@]21C [ETHINYL ESTRADIOL] | 100 | – | Infertility activity (Rattus norvegicus [7]): 100
18 | COc1ccc2c(c1)CCC1C2CCC2(C)C1C=C[C@@]2(O)c1ccccc1 (stereo partly specified) | – | 0.14 | Antifertility potency (Rattus norvegicus [14]): <10
19 | CC[C@H]1CC[C@H]2[C@@H]3CCc4cc(O)ccc4[C@H]3CC[C@]12C (stereo in doubt; 8i) [listing 2 of 2 here] | <40 | – | –
20 | CCC/C=C1\CC[C@H]2[C@@H]3CCc4cc(O)ccc4[C@H]3CC[C@]12C | <20 | 0.2 | –
21 | C=C1C[C@]2(C)[C@@H](CC)CC[C@H]2[C@@H]2CCc3cc(O)ccc3[C@@H]12 | 400 | 64 | –
22 | C[C@]12CC[C@@H]3c4ccc(O)cc4CC[C@H]3[C@@H]1CC/C2=C\C=O | 10 | 0.05 | –
23 | CC12CCC3c4ccc(O)cc4CCC3C1C=CC2C#N (stereo unspecified) | – | < 0.1 | Antifertility potency (Rattus norvegicus [14]): <4
24 | CC[C@H]1CC[C@H]2[C@@H]3[C@H](O)Cc4cc(O)ccc4[C@H]3CC[C@]12C | <10 | 0.04 | –

Row | Structure (SMILES) | Antifertility potency (Rattus norvegicus [1]) | Estrogenic potency [2] | also measured
25 | CC[Si](C#C[C@]1(O)CC[C@H]2[C@@H]3CCc4cc(O)ccc4[C@H]3CC[C@@]21C)(CC)CC | 600 | 37 | –
26 | CC[C@H]1CC[C@H]2[C@@H]3CCc4cc(O)ccc4[C@H]3CC[C@]12C (stereo in doubt; 8b) [listing 2 of 2 here] | – | – | Uterotrophic effect [10]: 11; Uterotrophic effect [11]: 1; Estrogenic potency [15]: 1
27 | COc1ccc2c(c1)CC[C@@H]1[C@@H]2CC[C@]2(C)[C@@H](c3ccccc3)CC[C@@H]12 | <4 | < 0.1 | –
28 | C=C1CC[C@H]2[C@@H]3[C@H](O)Cc4cc(O)ccc4[C@H]3CC[C@]12C | <20 | 0.1 | –
29 | CC[C@H]1CC[C@H]2[C@@H]3CCc4cc(O)ccc4[C@H]3[C@@H](O)C[C@]12C | 20 | 0.03 | Antifertility activity (Rattus norvegicus [16]): 20; EC50 (Estrogen receptor [3]): 22 µg/mL (≈ 73.2 µM); Estrogenic effect (Estrogen receptor [17]): < 8; Uterotrophic effect [10]: 2; EC50 (Estrogen receptor [6]): 5.6 µg/mL (≈ 18.6 µM); Uterotrophic effect [11]: 0.04
30 | C[C@]12CC[C@@H]3c4ccc(O)cc4CC[C@H]3[C@@H]1CC/C2=N\O | – | 0.28 | Antifertility potency (Rattus norvegicus [14]): 4
31 | C#C[C@]1(O)CC[C@H]2[C@@H]3[C@H](O)Cc4cc(O)ccc4[C@H]3CC[C@@]21C | 66 | 0.3 | Antifertility activity (Rattus norvegicus [16]): 66; EC50 (Estrogen receptor [3]): 52 µg/mL (≈ 166 µM); EC50 (Estrogen receptor [5]): 36 µg/mL (≈ 115 µM); Uterotrophic effect [10]: 10; Uterotrophic effect [11]: 0.1; Estrogenic effect (Estrogen receptor [12]): 100; EC50 (Estrogen receptor [18]): 18 µg/mL (≈ 57.6 µM); EC50 (Estrogen receptor [9]): 6 µg/mL (≈ 19.2 µM)
32 | C[C@]12CC[C@@H]3c4ccc(O)cc4CC[C@H]3[C@@H]1CCC2=S | – | 2.4 | –
33 | C[C@H]1CC[C@H]2[C@@H]3CCc4cc(O)ccc4[C@H]3CC[C@]12C | 20 | 0.3 | –
34 | CC[C@H]1CC[C@H]2[C@@H]3CCc4cc(O)ccc4[C@H]3[C@@H](OC)C[C@]12C | >2000 | 37 | –
35 | C/C=C1\CC[C@H]2[C@@H]3CCc4cc(O)ccc4[C@H]3CC[C@]12C | 10 | 0.3 | –
36 | [2H]C([2H])=C1CC[C@H]2[C@@H]3CCc4cc(O)ccc4[C@H]3CC[C@]12C | 67 | – | –
37 | C=C(C)[C@H]1CC[C@H]2[C@@H]3CCc4cc(O)ccc4[C@H]3CC[C@]12C | <10 | 0.08 | –
38 | CO/N=C1\CC[C@H]2[C@@H]3CCc4cc(O)ccc4[C@H]3CC[C@]12C | – | 0.04 | Antifertility potency (Rattus norvegicus [14]): 4
39 | C=C[C@H]1CC[C@H]2[C@@H]3CCc4cc(O)ccc4[C@H]3CC[C@]12C | 10 | 0.26 | –
40 | C[C@]12CC[C@@H]3c4ccc(O)cc4CC[C@H]3[C@@H]1CC/C2=N\N | <10 | 1.6 | –
41 | CC[Si](CC)(CC)CC[C@H]1CC[C@H]2[C@@H]3CCc4cc(O)ccc4[C@H]3CC[C@]12C | 10 | 0.27 | –
42 | C[C@]12CC[C@@H]3c4ccc(O)cc4CC[C@H]3[C@@H]1CC[C@@H]2C#N | <10 | 0.05 | –
43 | C/C=C1/CC[C@H]2[C@@H]3CCc4cc(O)ccc4[C@H]3[C@H](O)C[C@]12C | <7 | 0.04 | –
44 | CCC[C@H]1CC[C@H]2[C@@H]3CCc4cc(O)ccc4[C@H]3CC[C@]12C | 20 | 0.8 | –
45 | C=C1CCC2C3C=Cc4cc(O)ccc4C3CCC12C (stereo unspecified) | <5 | 0.04 | –
46 | CC[C@H]1CC[C@H]2[C@@H]3CCc4cc(O)ccc4[C@H]3[C@@](C)(O)C[C@]12C | <20 | 0.05 | –
47 | CC/C=C1\CC[C@H]2[C@@H]3CCc4cc(O)ccc4[C@H]3CC[C@]12C | <20 | 0.4 | –

Reference: ChEMBL document CHEMBL1124539, “17-Desoxy estrogen analogues” (J Med Chem, 1989)
